The record followed here is patent US20140274683A1, “COMPOSITIONS AND METHODS FOR REPELLING POLLINATING INSECTS AND PROTECTING PLANTS AND CROPS AGAINST INSECTS AND/OR NEMATODES” (Bayer CropScience LP, priority 2013, published 2014).

The nature of series [1]: Stability test of Poncho 600 combined with α-terpineol, clothianidin content by HPLC. It is filed as physicochemical. As to conditions: combined with alpha-terpineol, up to 54° C. for eight days. The method, then: Table 7 describes a stability test with a combination of α-terpineol and Poncho 600 evaluated at room temperature, 40° C., and 54° C. at zero time, 2 days, and 8 days as confirmed by HPLC.

The nature of series [2]: Stability test of Poncho combined with Eugenol, clothianidin content by HPLC. It is filed as physicochemical. As to conditions: up to 54° C. for seven days. As for the experimental part: Table 6 describes a stability test with a combination of Eugenol and Poncho evaluated at room temperature, 40° C., and 54° C. at zero time, 3 days, and 7 days as confirmed by high performance liquid chromatography (HPLC).

The next series concerns Honeybees. Briefly: Honeybee repulsion experiment at feeding stations with 50% sucrose. The following applies: 2% by weight in combination with 50% sucrose, feeding station. It is filed as in vivo. The method, then:
FIG. 1 describes the feeding station arrangement (A and B) for the honeybee repulsion experiments described herein. As set forth in FIG. 1, panel (A) sets forth the bee cage positions on the left portion of panel (A) with the randomized feeding station positions on the right portion of panel (A). Panel (B) sets forth an alignment of the randomized feeding station positions with a distance of two meters between feeding stations. A total of eight feeding stations were evaluated at a ten meter distance in front of the respective bee hives. The feeding stations were placed two meters apart from one another.
Honeybees were trained to deep feeders (eight positions), each containing a 50% sucrose solution for one day. After the honeybees were trained to each feeder, the 50% sucrose feeder at randomized positions 1-8 was replaced with a shallow feeder containing a combination of repelling compounds and a 50% sucrose solution according to Table 5. In accordance with FIGS. 5 and 6, 2% by weight of Camphor oil (T4), Ajowan oil (T5), Camphor powder (T6), Rosemary oil (T7), and 2-Decanone (T8) in combination with a 50% sucrose treatment were added to feeders on day two.
Table 5 describes active agents evaluated for bee repulsion and their randomized feeding station positions. As described in Table 5, T1 (control), T2 (control), T3 (control), T4 (Camphor oil), T5 (Ajowan oil), T6 (Camphor powder), T7 (Rosemary oil), and T8 (2-Decanone).
FIG. 5 evaluates the number of bees visiting a respective feed station over a time interval. FIG. 6 sets forth the mean number of honeybees visiting feeding station over a period of four hours.

Structures are written as SMILES.

Consider `CN/C(=N\[N+](=O)[O-])NCc1cnc(Cl)s1` [clothianidin], for which the “Chemical stability of clothianidin content in Poncho” value in series [1] and in series [2] was “exhibited chemical stability” throughout.
In the case of `CCCCCCCCC(C)=O` [Compound 2-Decanone, 2-decanone], the “Honeybee repellency over the 4 hour assessment period” value in the series on Honeybees (4 hour assessment period) was “highly repellent”. Also, the results for the “Honeybee repellency at 24 hours” value in the series with Honeybees and with Honeybees (listed as 2-decanone) were “exhibited repellency” and “still repellent”, respectively.
